2 compounds from patent US20250049871A1, “PHARMACEUTICAL COMBINATION FOR TREATING OR PREVENTING EPILEPSY AND THE USE THEREOF” (priority 2023, published 2025) can be followed below.

Each structure is given as a SMILES string.

Holding throughout (format): in vivo, Sprague-Dawley rats
One assay relates to KA-induced seizures. Put plainly: kainic acid (KA)-induced epilepsy model in animals, epileptic behavior by Racine scale. Particulars: for Death: dead/total rats; for Seizure %: share of rats with seizures; for Seizure stage: then KA 15 mg/kg i.p., Racine scale within 4 hours. The procedure: Male Sprague-Dawley rats (SD rat, 150-200 g) were purchased from BioLASCO (Taiwan) and bred in Fu Jen Laboratory Animal Center. All animal experiments were approved by the IACUC of Fu Jen Catholic University. According to the 3R principles, all experiments were performed to minimize animal suffering and use the minimum number of animals necessary to produce reliable results.
The antiepileptic effect of the birch sap extract was evaluated using kainic acid (KA)-induced epilepsy model in animals. KA is an analogue of glutamate, and injection of KA into rats will increase the release of glutamate and overactivate glutamate receptors, resulting in progressive limbic seizures in rats. This phenomenon leads to increased calcium ions in nerve cells, oxidative stress, and loss of mitochondrial function, resulting in the death of nerve cells in many areas of the brain, especially in the cerebral cortex and hippocampus. In addition, KA-induced neuronal cell death is related to glial cell activation and inflammatory response caused by inflammatory molecules, such as interleukin-1β (IL-1β), interleukin-6 (IL-6), tumor necrosis factor-α (TNF-α), high mobility group Box 1 (HMGB1), interleukin 1 receptor 1 (IL-1R1), and Toll-like receptor-4 (TLR-4).
Epileptic behavioral expressions were analyzed within 4 hours after intraperitoneal injection of KA in rats.
Sprague-Dawley rats were divided into the following groups according to the administration of different test substances: • 1. Negative control group: normal saline • 2. KA group: 15 mg/kg/i.p./single dose of kainic acid (KA) • 3. Low-dose group of birch sap extract: 6 mg/kg of birch sap extract • 4. High-dose group of birch sap extract: 10 mg/kg of birch sap extract • 5. High-dose group of antiepileptic drug: 100 mg/kg of carbamazepine (CBZ) • 6. Antiepileptic pharmaceutical combination group: 6 mg/kg of birch sap extract and 50 mg/kg of CBZ • 7. Low-dose group of antiepileptic drug: 50 mg/kg of CBZ
The control group, birch sap extract groups, antiepileptic drug groups, and antiepileptic pharmaceutical combination group were fed with normal saline, birch sap extract and/or CBZ through feeding tubes at regular intervals every day. One week later, except for the negative control group, rats in each group were intraperitoneally injected with KA (15 mg/kg/i.p./single dose), and the dose of KA injection was based on the previous study. The epileptic behavior of rats was analyzed according to Racine scale (1972) within 4 hours after intraperitoneal injection of KA.

The test system of assay [1] is cerebral cortex and hippocampus CA1/CA3 nerve cells. Put plainly: Nissl staining of brain tissue after KA injection. Particulars: pretreatment; three days after KA 15 mg/kg i.p.; p<0.05 vs KA group. The method, then:
(§1) Continuing from Example 3, the experimental animals in each group were sacrificed three days after intraperitoneal injection of KA (15 mg/kg), and the brain tissues were taken out for sectioning and other relevant experimental analysis.

Assay [2] concerns CA1/CA3 degenerative cells in the cerebral cortex and hippocampus. Kind of assay: Fluoro-Jade B (FJB) staining of brain tissue after KA injection. Particulars: pretreatment; three days after KA 15 mg/kg i.p.; p<0.05 vs KA group. The method, then:
as §1
This phenomenon can also be reduced by the pretreatment with the birch sap extract and betulin (p<0.05; FIGS. 4A and 4B).

Regarding `NC(=O)N1c2ccccc2C=Cc2ccccc21` [CBZ, carbamazepine], the Death with KA-induced seizures (CBZ 50 mg/kg + KA) is 0/3; in the assay with KA-induced seizures (CBZ 100 mg/kg + KA), 1/11. The “Latency to first seizure” value was determined as 89 ± 17 min in the assay with KA-induced seizures (CBZ 50 mg/kg + KA, mean ± SEM) and 140 min in the assay with KA-induced seizures (CBZ 100 mg/kg + KA). Further, the values for the Seizure % in the assay with KA-induced seizures (CBZ 50 mg/kg + KA) and in the assay with KA-induced seizures (CBZ 100 mg/kg + KA) were 66% and 10%, respectively. Further, the Seizure stage with KA-induced seizures (CBZ 50 mg/kg oral daily for one week, mean ± SEM) worked out at 3.6 ± 0.3; with KA-induced seizures (CBZ 100 mg/kg oral daily for one week, mean ± SEM), 0.9 ± 0.5. In addition, the “time and severity of seizures compared with the KA group” value in the assay on KA-induced seizures (low-dose group of antiepileptic drug, CBZ 50 mg/kg) is listed as “not statistically different”.
Consider `C=C(C)[C@@H]1CC[C@]2(CO)CC[C@]3(C)[C@H](CC[C@@H]4[C@@]5(C)CC[C@H](O)C(C)(C)[C@@H]5CC[C@]43C)[C@@H]12` [betulin], for which the “number of neurocytes in cerebral cortex and hippocampus CA1/CA3 (Nissl staining)” value in assay [1] is given as “reduce the decrease in the number of neurocytes”. For the same compound, in assay [2], the “number of CA1/CA3 degenerative cells in the cerebral cortex and hippocampus (FJB staining)” value is “reduced”.
